# The source made the active and inactive calls. The rule behind the calls is not given here.
# Experiments:
# Staphylococcus aureus [1] = assay: Inhibition of ribosomal 50S subunit synthesis in methicillin-resistant Staphylococcus aureus A1024 at 8 ng/mL by [3H]uridine pulse-chase labeling method; format: functional, organism-based
# Staphylococcus aureus [2] = assay: Inhibition of ribosomal 50S subunit synthesis in wild type Staphylococcus aureus RN1786 at 8 ng/mL by [3H]uridine pulse-chase labeling method; format: functional, organism-based
# Staphylococcus aureus [3] = assay: Reduction of 23S rRNA level in wild type Staphylococcus aureus RN1786 at 10 ng/mL by agilent bioanalyzer analysis; format: functional; design: scale not given: the % may be the effect or the level left
# Staphylococcus aureus [4] = assay: Reduction of 23S rRNA level in wild type Staphylococcus aureus RN1786 at 20 ng/mL by agilent bioanalyzer analysis; format: functional; design: scale not given: the % may be the effect or the level left
# Staphylococcus aureus [5] = assay: Reduction of 23S rRNA level in methicillin-resistant Staphylococcus aureus A1024 at 10 ng/mL by agilent bioanalyzer analysis; format: functional; design: scale not given: the % may be the effect or the level left
# Staphylococcus aureus [6] = assay: Reduction of 23S rRNA level in methicillin-resistant Staphylococcus aureus A1024 at 20 ng/mL by agilent bioanalyzer analysis; format: functional; design: scale not given: the % may be the effect or the level left
# Staphylococcus aureus [7] = assay: Effect on 16S rRNA level in wild type Staphylococcus aureus RN1786 at 10 ng/mL by agilent bioanalyzer analysis; format: functional
# Staphylococcus aureus [8] = assay: Effect on 16S rRNA level in wild type Staphylococcus aureus RN1786 at 20 ng/mL by agilent bioanalyzer analysis; format: functional
# Staphylococcus aureus [9] = assay: Effect on 16S rRNA level in methicillin-resistant Staphylococcus aureus A1024 at 10 ng/mL by agilent bioanalyzer analysis; format: functional
# Staphylococcus aureus [10] = assay: Effect on 16S rRNA level in methicillin-resistant Staphylococcus aureus A1024 at 20 ng/mL by agilent bioanalyzer analysis; format: functional
# Staphylococcus aureus [11] = assay: Increase in small RNA level in wild type Staphylococcus aureus RN1786 at 10 ng/mL by agilent bioanalyzer analysis; format: functional
# Staphylococcus aureus [12] = assay: Increase in small RNA level in wild type Staphylococcus aureus RN1786 at 20 ng/mL by agilent bioanalyzer analysis; format: functional
# Staphylococcus aureus [13] = assay: Increase in small RNA level in methicillin-resistant Staphylococcus aureus A1024 at 10 ng/mL by agilent bioanalyzer analysis; format: functional
# Staphylococcus aureus [14] = assay: Increase in small RNA level in methicillin-resistant Staphylococcus aureus A1024 at 20 ng/mL by agilent bioanalyzer analysis; format: functional
# Staphylococcus aureus [15] = assay: Inhibition of total viable cell number in wild type Staphylococcus aureus RN1786; format: functional, organism-based
# Staphylococcus aureus [16] = assay: Inhibition of total viable cell number in methicillin-resistant Staphylococcus aureus A1024; format: functional, organism-based
# Staphylococcus aureus [17] = assay: Inhibition of protein synthesis in wild type Staphylococcus aureus RN1786; format: functional, organism-based
# Staphylococcus aureus [18] = assay: Inhibition of protein synthesis in methicillin-resistant Staphylococcus aureus A1024; format: functional, organism-based
# Staphylococcus aureus [19] = assay: Inhibition of ribosomal 50S subunit synthesis in wild type Staphylococcus aureus RN1786; format: functional, organism-based
# Staphylococcus aureus [20] = assay: Inhibition of ribosomal 50S subunit synthesis in methicillin-resistant Staphylococcus aureus A1024; format: functional, organism-based
# Staphylococcus aureus [21] = assay: Inhibition of ribosomal 30S subunit formation in wild type Staphylococcus aureus RN1786; format: functional, organism-based
# Staphylococcus aureus [22] = assay: Inhibition of ribosomal 30S subunit formation in methicillin-resistant Staphylococcus aureus A1024; format: functional, organism-based
# Staphylococcus aureus [23] = assay: Antibacterial activity against wild type Staphylococcus aureus RN1786; format: functional
# Staphylococcus aureus [24] = assay: Antibacterial activity against methicillin-resistant Staphylococcus aureus A1024; format: functional
# Staphylococcus aureus [25] = assay: Inhibition of ribosomal 30S subunit synthesis in methicillin-resistant Staphylococcus aureus A1024 at 8 ng/mL by [3H]uridine pulse-chase labeling method; format: functional, organism-based
smiles,measurement,setting,value
C=C[C@]1(C)C[C@@H](OC(=O)CS[C@@H]2C[C@H]3CC[C@@H](C2)N3C)[C@]2(C)[C@H](C)CC[C@]3(CCC(=O)[C@H]32)[C@@H](C)[C@@H]1O [RETAPAMULIN],Activity,Staphylococcus aureus [1],Active
same,Activity,Staphylococcus aureus [2],Active
same,Activity,Staphylococcus aureus [3],15.3%
same,Activity,Staphylococcus aureus [4],16.6%
same,Activity,Staphylococcus aureus [5],14.1%
same,Activity,Staphylococcus aureus [6],12.3%
same,Activity,Staphylococcus aureus [7],19.8%
same,Activity,Staphylococcus aureus [8],19.7%
same,Activity,Staphylococcus aureus [9],18.8%
same,Activity,Staphylococcus aureus [10],18.8%
same,Activity,Staphylococcus aureus [11],68.7%
same,Activity,Staphylococcus aureus [12],70.6%
same,Activity,Staphylococcus aureus [13],52.3%
same,Activity,Staphylococcus aureus [14],57.6%
same,IC50,Staphylococcus aureus [15],0.012 µg/mL
same,IC50,Staphylococcus aureus [16],0.025 µg/mL
same,IC50,Staphylococcus aureus [17],0.005 µg/mL
same,IC50,Staphylococcus aureus [18],0.017 µg/mL
same,IC50,Staphylococcus aureus [19],0.027 µg/mL
same,IC50,Staphylococcus aureus [20],0.02 µg/mL
same,Activity,Staphylococcus aureus [21],inactive
same,Activity,Staphylococcus aureus [22],inactive
same,MIC,Staphylococcus aureus [23],0.035 µg/mL
same,MIC,Staphylococcus aureus [24],0.055 µg/mL
same,Activity,Staphylococcus aureus [25],inactive
